Assay results taken from PubChem BioAssay AID342 (DTP/NCI, 2004).
Several values for one entry are separate records, joined by “and”; a condition that tells them apart may be missing. Equal values may be shown once.

System: Swiss mice, Sarcoma 180 sc, mean tumor weight T/C
Experiment: NCI In Vivo Anticancer Drug Screen. Data for tumor model Sarcoma 180 (subcutaneous) in Swiss mice
Details: endpoint: mean tumor weight, higher = larger tumour
Summary of the method: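 Antitumor activity is assessed in mice with transplantable tumors. Treated (T) and vehicle control (C) groups are compared on survival or tumor size.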

[1] = dose: 7.8 mg/kg/injection, schedule: Q01DX007 (ip), vehicle: saline
[2] = dose: 15.6 mg/kg/injection, schedule: Q01DX007 (ip), vehicle: saline
[3] = dose: 31.3 mg/kg/injection, schedule: Q01DX007 (ip), vehicle: saline
[4] = dose: 125.0 mg/kg/injection, schedule: Q01DX007 (ip), vehicle: saline

Question: For COc1cc(C[C@H]2c3cc(OC)c(OC)cc3CCN2C)c(Oc2cc3c(cc2OC)-c2c(OC)c(OC)cc4c2[C@H](C3)N(C)CC4)cc1OC, which T/C [1] is on record?
Answer: 96 % of control

Question: What about the T/C [2] of the same compound?
Answer: 77 % of control

Question: What about the T/C [3] of the same compound?
Answer: 78 % of control

Question: And the T/C (dose: 62.5 mg/kg/injection, schedule: Q01DX007 (ip), vehicle: saline)?
Answer: 57 % of control and 68 % of control

Question: And the T/C [4]?
Answer: 63 % of control

Question: For NC(=O)c1[nH]cnc1/N=N/N(Cc1ccccc1)Cc1ccccc1, which T/C (dose: 15.5 mg/kg/injection, schedule: Q#A X014 (ip), vehicle: carboxymethylcellulose (CMC)) is on record?
Answer: 49 % of control

Question: What about the T/C (dose: 31.0 mg/kg/injection, schedule: Q#A X014 (ip), vehicle: carboxymethylcellulose (CMC)) of the same compound?
Answer: 59 % of control

Question: And the T/C (dose: 62.5 mg/kg/injection, schedule: Q#A X014 (ip), vehicle: carboxymethylcellulose (CMC))?
Answer: 61 % of control

Question: For CCCCCN(C)/N=N/c1nc[nH]c1C(N)=O, which T/C (dose: 50.0 mg/kg/injection, schedule: Q01DX007 (ip), vehicle: carboxymethylcellulose (CMC)) is on record?
Answer: 41 % of control and 51 % of control

Question: What about the T/C (dose: 75.0 mg/kg/injection, schedule: Q01DX007 (ip), vehicle: carboxymethylcellulose (CMC)) of the same compound?
Answer: 23 % of control and 36 % of control

Question: What about the T/C (dose: 100.0 mg/kg/injection, schedule: Q01DX007 (ip), vehicle: carboxymethylcellulose (CMC)) of the same compound?
Answer: 24 % of control

Question: What does the source list for CN(C)c1ccc(/C=C/c2ccnc3ccccc23)cc1?
Answer: T/C (dose: 15.5 mg/kg/injection, schedule: Q01DX007 (ip), vehicle: water): 82 % of control; T/C (dose: 62.0 mg/kg/injection, schedule: Q01DX007 (ip), vehicle: carboxymethylcellulose (CMC)): 86 % of control

Question: CO[C@H]1CC[C@@]2(C)[C@@H](CC[C@H]3[C@@H]4C[C@H](O)C[C@@]4(C)CC[C@@H]32)C1 was tested. Which T/C (dose: 0.01 mg/kg/injection, schedule: Q#A X014 (sc), vehicle: olive oil, sesame oil, peanut oil) did it give?
Answer: 121 % of control

Question: What about the T/C (dose: 0.05 mg/kg/injection, schedule: Q#A X014 (sc), vehicle: olive oil, sesame oil, peanut oil) of the same compound?
Answer: 72 % of control

Question: And the T/C (dose: 0.25 mg/kg/injection, schedule: Q#A X014 (sc), vehicle: olive oil, sesame oil, peanut oil)?
Answer: 112 % of control

Question: And the T/C (dose: 50.0 mg/kg/injection, schedule: Q#A X014 (ip), vehicle: distilled water + alcohol)?
Answer: 95 % of control

Question: Which results are given for CC1(C)O[C@@H]2C[C@H]3[C@@H]4CCC5=CC(=O)CC[C@]5(C)[C@@]4(F)[C@@H](O)C[C@]3(C)[C@]2(C(=O)CO)O1?
Answer: T/C (dose: 2.2 mg/kg/injection, schedule: Q#A X014 (sc), vehicle: steriod suspending solution): 53 % of control and 63 % of control; T/C (dose: 2.3 mg/kg/injection, schedule: Q01DX007 (sc), vehicle: steriod suspending solution): 61 % of control; T/C (dose: 3.3 mg/kg/injection, schedule: Q#A X014 (sc), vehicle: steriod suspending solution): 62 % of control; T/C (dose: 3.5 mg/kg/injection, schedule: Q01DX007 (sc), vehicle: steriod suspending solution): 47 % of control; T/C (dose: 5.0 mg/kg/injection, schedule: Q#A X014 (sc), vehicle: steriod suspending solution): 27 % of control; T/C (dose: 5.3 mg/kg/injection, schedule: Q01DX007 (sc), vehicle: steriod suspending solution): 43 % of control; T/C (dose: 7.5 mg/kg/injection, schedule: Q#A X014 (sc), vehicle: steriod suspending solution): 24 % of control; T/C (dose: 12.0 mg/kg/injection, schedule: Q01DX007 (sc), vehicle: steriod suspending solution): 36 % of control; T/C (dose: 27.0 mg/kg/injection, schedule: Q01DX007 (sc), vehicle: steriod suspending solution): 39 % of control and 40 % of control; T/C (dose: 40.0 mg/kg/injection, schedule: Q01DX007 (sc), vehicle: steriod suspending solution): 32 % of control; T/C (dose: 60.0 mg/kg/injection, schedule: Q01DX007 (sc), vehicle: steriod suspending solution): 24 % of control; T/C (dose: 90.0 mg/kg/injection, schedule: Q01DX007 (sc), vehicle: steriod suspending solution): 19 % of control and 30 % of control; T/C (dose: 130.0 mg/kg/injection, schedule: Q01DX007 (sc), vehicle: steriod suspending solution): 16 % of control

Question: For C[C@]12CC[C@H]3[C@@H](CC=C4C[C@@H](OC5CCCCO5)CC[C@@]43C)[C@@H]1CC[C@@H]2O (stereo partly drawn), which T/C (dose: 25.0 mg/kg/injection, schedule: Q#A X014 (oral), vehicle: steriod suspending solution) is on record?
Answer: 95 % of control

Question: And the T/C (dose: 75.0 mg/kg/injection, schedule: Q#A X014 (oral), vehicle: steriod suspending solution)?
Answer: 95 % of control

Question: And the T/C (dose: 187.5 mg/kg/injection, schedule: Q#A X014 (oral), vehicle: steriod suspending solution)?
Answer: 80 % of control

Question: With CC(C)CC(C)(C[N+](=O)[O-])C[N+](=O)[O-] as the compound, how does the T/C (dose: 4.0 mg/kg/injection, schedule: Q01DX007 (ip), vehicle: saline) read?
Answer: 93 % of control

Question: How did the T/C (dose: 1.5 mg/kg/injection, schedule: Q01DX007 (ip), vehicle: saline) turn out when CN(Cc1cnc2nc(NCNC(=O)C3=C(O)[C@@]4(O)C(=O)C5=C(O)c6c(O)cccc6[C@@](C)(O)[C@H]5C[C@H]4[C@H](N(C)C)C3=O)nc(N)c2n1)c1ccc(C(=O)NC(CCC(=O)O)C(=O)O)cc1 (stereo partly drawn) was run?
Answer: 76 % of control

Question: What about the T/C (dose: 3.0 mg/kg/injection, schedule: Q01DX007 (ip), vehicle: saline) of the same compound?
Answer: 52 % of control

Question: And the T/C (dose: 6.0 mg/kg/injection, schedule: Q01DX007 (ip), vehicle: saline)?
Answer: 16 % of control

Question: With C=C(C)C(=O)O[C@H]1CC2=C[C@@H](C[C@@]3(C)O[C@@H]3[C@H]3OC(=O)C(=C)[C@@H]31)OC2=O as the compound, how does the T/C (dose: 2.5 mg/kg/injection, schedule: Q01DX007 (ip), vehicle: saline) read?
Answer: 105 % of control

Question: And the T/C (dose: 5.0 mg/kg/injection, schedule: Q01DX007 (ip), vehicle: saline)?
Answer: 106 % of control

Question: And the T/C (dose: 10.0 mg/kg/injection, schedule: Q01DX007 (ip), vehicle: saline)?
Answer: 100 % of control

Question: C=CC(CN1CC1)OC(C)=O (stereo not drawn) was tested. Which T/C (dose: 0.88 mg/kg/injection, schedule: Q01DX007 (ip), vehicle: carboxymethylcellulose (CMC)) did it give?
Answer: 94 % of control

Question: And the T/C (dose: 1.25 mg/kg/injection, schedule: Q01DX007 (ip), vehicle: carboxymethylcellulose (CMC))?
Answer: 68 % of control

Question: What about the T/C (dose: 1.75 mg/kg/injection, schedule: Q01DX007 (ip), vehicle: carboxymethylcellulose (CMC)) of the same compound?
Answer: 97 % of control

Question: What about the T/C (dose: 2.3 mg/kg/injection, schedule: Q01DX007 (ip), vehicle: carboxymethylcellulose (CMC)) of the same compound?
Answer: 58 % of control

Question: And the T/C (dose: 3.5 mg/kg/injection, schedule: Q01DX007 (ip), vehicle: carboxymethylcellulose (CMC))?
Answer: 56 % of control

Question: And the T/C (dose: 7.0 mg/kg/injection, schedule: Q01DX007 (ip), vehicle: carboxymethylcellulose (CMC))?
Answer: 50 % of control

Question: What does the source list for NNC(=O)CCC(N)C(=O)O (stereo not drawn)?
Answer: T/C (dose: 5.75 mg/kg/injection, schedule: Q#A X014 (ip), vehicle: carboxymethylcellulose (CMC)): 97 % of control; T/C (dose: 11.5 mg/kg/injection, schedule: Q#A X014 (ip), vehicle: carboxymethylcellulose (CMC)): 90 % of control; T/C (dose: 23.0 mg/kg/injection, schedule: Q#A X014 (ip), vehicle: carboxymethylcellulose (CMC)): 118 % of control; T/C (dose: 46.0 mg/kg/injection, schedule: Q#A X014 (ip), vehicle: carboxymethylcellulose (CMC)): 70 % of control

Question: Which results are given for [N-]=[N+]=CC(=O)NCC(=O)NN?
Answer: T/C (dose: 400.0 mg/kg/injection, schedule: Q01DX007 (ip), vehicle: water): 45 % of control; T/C (dose: 450.0 mg/kg/injection, schedule: Q01DX007 (ip), vehicle: other): 43 % of control; T/C (dose: 500.0 mg/kg/injection, schedule: Q01DX007 (ip), vehicle: other): 50 % of control; T/C (dose: 600.0 mg/kg/injection, schedule: Q01DX007 (ip), vehicle: water): 34 % of control

Question: Which results are given for Nc1cccc2c(=O)[nH][nH]c(=O)c12?
Answer: T/C (dose: 62.5 mg/kg/injection, schedule: Q01DX007 (ip), vehicle: water): 119 % of control; T/C (dose: 125.0 mg/kg/injection, schedule: Q01DX007 (ip), vehicle: water): 118 % of control; T/C (dose: 250.0 mg/kg/injection, schedule: Q01DX007 (ip), vehicle: water): 61 % of control; T/C (dose: 375.0 mg/kg/injection, schedule: Q01DX007 (ip), vehicle: water): 85 % of control

Question: What does the source list for COc1cc([C@@H]2c3cc4c(cc3[C@H](O)[C@H]3COC(=O)[C@H]23)OCO4)cc(OC)c1OC?
Answer: T/C (dose: 0.45 mg/kg/injection, schedule: Q01DX007 (ip), vehicle: carboxymethylcellulose (CMC)): 90 % of control; T/C (dose: 0.9 mg/kg/injection, schedule: Q01DX007 (ip), vehicle: carboxymethylcellulose (CMC)): 92 % of control; T/C (dose: 175.0 micrograms/kg/injection, schedule: Q01DX007 (ip), vehicle: carboxymethylcellulose (CMC)): 88 % of control; T/C (dose: 350.0 micrograms/kg/injection, schedule: Q01DX007 (ip), vehicle: carboxymethylcellulose (CMC)): 77 % of control; T/C (dose: 1400.0 micrograms/kg/injection, schedule: Q01DX007 (ip), vehicle: carboxymethylcellulose (CMC)): 71 % of control

Question: O=C(Nc1ccc(C2=NCCN2)cc1)c1cccc(C(=O)Nc2ccc(C3=NCCN3)cc2)c1 was tested. Which T/C (dose: 1.2 mg/kg/injection, schedule: Q01DX007 (ip), vehicle: carboxymethylcellulose (CMC)) did it give?
Answer: 167 % of control

Question: And the T/C (dose: 4.7 mg/kg/injection, schedule: Q01DX007 (ip), vehicle: carboxymethylcellulose (CMC))?
Answer: 109 % of control

Question: And the T/C (dose: 9.4 mg/kg/injection, schedule: Q01DX007 (ip), vehicle: carboxymethylcellulose (CMC))?
Answer: 117 % of control

Question: And the T/C (dose: 60.0 mg/kg/injection, schedule: Q01DX007 (ip), vehicle: carboxymethylcellulose (CMC))?
Answer: 163 % of control

Question: What about the T/C (dose: 120.0 mg/kg/injection, schedule: Q01DX007 (ip), vehicle: carboxymethylcellulose (CMC)) of the same compound?
Answer: 98 % of control

Question: And the T/C (dose: 240.0 mg/kg/injection, schedule: Q01DX007 (ip), vehicle: carboxymethylcellulose (CMC))?
Answer: 79 % of control

Question: For C=CCCCCCCCCC(=O)O, which T/C [1] is on record?
Answer: 109 % of control

Question: What about the T/C [2] of the same compound?
Answer: 118 % of control

Question: And the T/C [3]?
Answer: 122 % of control

Question: What about the T/C [4] of the same compound?
Answer: 90 % of control
